# Experimental data from patent publication US20250186491A1, “COMPOSITIONS AND METHODS FOR TREATING CANCER WITH CHIMERIC TIM RECEPTORS IN COMBINATION WITH INHIBITORS OF POLY (ADP-RIBOSE) POLYMERASE” (CERO THERAPEUTICS HOLDINGS, INC., priority 2020, published 2025).
# Columns and labels:
# [1] = tested on: Kuramochi ovarian cancer cells; experiment: Kuramochi cell number under PARP inhibitors, tracked via imaging; assay type: cell-based, human; settings: for elimination of the Kuramochi culture: by t=50 h; for EC50 values (ranking), number of Kuramochi cells: five PARP inhibitors compared
# Protocol: Kuramochi ovarian cancer cells expressing an mCherry-NLS plasmid were incubated with 0.78 to 100 uM of the PARP inhibitor Niraparib. The number of Kuramochi cells/well was tracked via imaging.
# Kuramochi cells = tested on: Kuramochi cells
# Protocol: FIG. 8A: Flow cytometry measurement of surface PtdSer. Kuramochi cells were treated with 1.56 or 25 μM Niraparib or with equivalent volume of DMSO (control). 48 hours later samples were trypsinized and stained using a Tim4-Fc followed by a fluorescently-labeled secondary anti body to the Tim4-Fc. FIG. 8B: Kuramochi cells pre-treated for ˜20 hours with 1.56 μM Niraparib were co-cultured with pCTX133 and Untransduced CD4 T cells from donor 32 at a 2:1 T cell:Kuramochi ratio and a final Niraparib concentration of 1.56 μM. […] All data were collected via IncuCyte.
# (§1) Flow cytometry measurement of surface PS: A2780-mCh-NLS cells were treated with […] Niraparib or with equivalent volume of DMSO (control). 48 hours later samples were trypsinized and stained using a Tim4-Fc followed by a fluorescently-labeled secondary antibody to the Tim4-Fc. Samples were immediately analyzed via Flow cytometry.
# A2780-mCh-NLS cells = settings: FIG. 11A
# Protocol: as §1
smiles,measurement,setting,value
NC(=O)c1cccc2cn(-c3ccc([C@@H]4CCCNC4)cc3)nc12 [Niraparib],number of Kuramochi cells in culture,"[1]; Niraparib 0.78 to 100 uM, t=50, FIG. 1A",decreases monotonically with increasing Niraparib concentration
same,elimination of the Kuramochi culture,[1]; FIG. 1B,almost eliminate the Kuramochi culture
same,"EC50 values (ranking), number of Kuramochi cells","[1]; t=50 h, FIG. 1B",most sensitive EC50 values
same,membrane phospholipid symmetry (Ptd-Ser exposure),"Kuramochi cells; BRCA-2 mutated Kuramochi, brief exposure, 1.56 or 25 μM, FIG. 8A","elicits changes in membrane phospholipid symmetry, in a dose dependent manner"
same,growth of Kuramochi cells,Kuramochi cells; FIG. 8A,effective in inhibiting growth
same,Tim4-Fc MFI,"Kuramochi cells; Kuramochi, 25 μM Niraparib vs DMSO, FIG. 11B",increase
same,concentration at which anti-tumor effect begins,"Kuramochi cells; Kuramochi, FIG. 11B",at least 25 μM
same,Tim4-Fc MFI,A2780-mCh-NLS cells; 1.56 and 25 μM Niraparib vs DMSO,increase
same,concentration at which anti-tumor effect begins,A2780-mCh-NLS cells,at least 1.56 μM
CNCc1ccc(-c2[nH]c3cc(F)cc4c3c2CCNC4=O)cc1 [Rucaparib],elimination of the Kuramochi culture,[1]; FIG. 1B,almost eliminate the Kuramochi culture
Cn1ncnc1[C@H]1c2n[nH]c(=O)c3cc(F)cc(c23)N[C@@H]1c1ccc(F)cc1 [Talazoparib],"EC50 values (ranking), number of Kuramochi cells","[1]; t=50 h, FIG. 1B",most sensitive EC50 values
C[C@]1(c2nc3c(C(N)=O)cccc3[nH]2)CCCN1 [Veliparib],impact on the number of detected Kuramochi cells,"[1]; t=50 h, of the five PARP inhibitors tested, FIG. 1B",least impact
